How the values were obtained:
[1] = Annealing/DSC method for solubility of a crystalline substance in a polymer; type: physicochemical; details: 40 and 50% w/w IMC in PVP/VA, annealing vs scanning method
Protocol: Solute-polymer mixtures of desired concentrations were prepared by weighing the components. […] In a typical procedure, 0.5-1 g solute/polymer powder was milled at 10 Hz. Each cycle of milling was 2 min, followed by a 2 min cool-down. The cycle was repeated to achieve a desired milling time (2-60 min).
For annealing, 5-10 mg of sample was packed into a Tzero hermetic aluminum pan with three pin holes made in the lid to allow the escape of moisture and held isothermally at a desired temperature for as long as 600 minutes. Shorter annealing time was used if the system could apparently achieve equilibrium sooner.
Differential scanning calorimetry (DSC) was conducted using a TA Instruments DSC Q2000 at 10° C./min to determine whether residual crystals remain after annealing, i.e. whether a dissolution endotherm can be identified.

[2] = Flory-Huggins fit of solute activity from annealing-method solubility data (interaction parameter χ); type: physicochemical; details: polymer PVP K-12, Flory-Huggins fit
Protocol: The solute activity a1 of the drug in the saturated solution was calculated from the solubility of the crystalline drug in the polymer as follows:
In a1=(ΔHm/R)(1/Tm−1/T) (1)
where Tm is the melting point of the pure drug, ΔHm is its molar heat of melting, and T is the temperature at which the drug's solubility is measured (or its depressed melting point). […] According to the Flory-Huggins theory, the solute activity is given by
where v1 and v2 are the solute (drug) and solvent (polymer) volume fractions (v1+v2=1), x is the molar volume ratio of the polymer and the drug, and χ□ is the solute-solvent interaction parameter.
To the extent the reasonable fitting in FIG. 4 justifies the use of the Flory-Huggins model, the interaction parameter χ (equation 1) could be obtained.

[3] = polymer PVP K-12; cited from earlier work

- solution temperature below that obtained with the scanning method [1]: approximately 7 °C
- solute-solvent interaction parameter χ as determined with the method of the present invention [2]: −8.2 ± 0.6
Compound: COc1ccc2c(c1)c(CC(=O)O)c(C)n2C(=O)c1ccc(Cl)cc1 [IMC, indomethacin]
- solute-solvent interaction parameter χ as determined by Marsac et al. [3]: −0.82

— patent US20130199313A1, “METHOD FOR EVALUATING THE SOLUBILITY OF A CRYSTALLINE SUBSTANCE IN A POLYMER” (Abbott GmbH & Co, KGW, priority 2010, published 2013)
